{
  "source": "patent US10662146B2",
  "about": "“Prodrugs of fencamfamine” (Praxis Bioresearch, LLC, priority 2015, dated 2020)",
  "experiment": "Single dose oral PK study in male Sprague Dawley rats (plasma by LC-MS/MS)",
  "type": "in vivo",
  "conditions": "for Plasma concentration of PRX-P4-003 / AUC% extrap of PRX-P4-003 / Tmax: mean; for Tmax: male, rat, in vivo",
  "procedure": "We describe here PK results of prodrugs of PRX-002 (−) or (+) isomers. All doses of prodrugs were administered such that they were equivalent to 5 mg/kg of PRX-002 (−) or (+) for oral studies and 2 mg/kg PRX-002 (−) or (+) for intravenous studies in male Sprague-Dawley (MSD) rats. Higher doses of up to 10 or 15 mg/kg [again equivalent to PRX-002 (−)] were used in some studies (as specified)]. Formulation preparation, dose administration and time of sample collection was as follows.\nTest item was weighed [5 mg equivalent dose of PRX-002 for prodrugs] and transferred to a graduated tube. Then 10 μL of Tween 80 was added and vortexed mixed until the test item was completely mixed. Small volume of 0.5% (w/v) carboxymethylcellulose in water solution was then added dropwise with continuous vortex mixing until a uniform suspension was obtained. The final volume was then made up to 10 mL with 0.5% (w/v) carboxymethylcellulose in water with final strength of 0.5 mg/mL. […] This formulation was freshly prepared before the administration to animals.\n(§1) Adult male Sprague Dawley Rats aged 8-10 weeks were used for the study. Fasted animals were administered test item by oral route with a dose of 5 mg/kg body weight at dose volume of 10 mL/kg body weight. Under mild isoflurane anesthesia, blood specimens were collected by retro-orbital puncture method using capillary tubes into pre-labeled tubes containing anticoagulant (K2EDTA-2 mg/mL blood) during the next 24 hours of post dose as mentioned in below table. For blood sampling at multiple time points, right and left eyes were used alternatively for blood collection. Collected blood specimens were centrifuged at 4000 rpm, 4° C. for 10 minutes and plasma were separated and stored at −80° C. until analysis.\nBlood was collected as outlined in Table 39.1 (oral).\nTest item PRX-P4-003 was weighed and transferred to a graduated tube. Then 12.42 μL of Tween 80 was added and vortexed mixed until the test item was completely mixed. Small volume of 0.5% (w/v) Carboxymethylcellulose in water solution was then added dropwise with continuous vortex mixing until a uniform suspension was obtained. The final volume was then made up to 12.42 mL with 0.5% (w/v) Carboxymethylcellulose in water with final strength of 1.0 mgA/mL. […] This formulation was freshly prepared before the administration to animals.\nas §1, with “with a PRX-P4-003” for “test item”, “10” for “5”\nTest item PRX-P5-006 was weighed and transferred to a graduated tube. Then 10 μL of Tween 80 was added and vortexed mixed until the test item was completely mixed. Small volume of 0.5% (w/v) Carboxymethylcellulose in water solution was then added dropwise with continuous vortex mixing until a uniform suspension was obtained. The final volume was then made up to 10 mL with 0.5% (w/v) Carboxymethylcellulose in water with final strength of 3.97 mg/mL. […] This formulation was freshly prepared before the administration to animals.\nAdult male Sprague Dawley Rats aged 8-10 weeks were used for the study. Fasted animals were administered with a PRX-P5-006 by oral route with a dose of 15 mg/kg body weight at dose volume of 10 mL/kg body weight. […]",
  "note": "Where “and” joins values, the source holds several entries; their conditions need not be identical. Equal entries are not always repeated. Where two headings read alike, the source gives them in different places.",
  "data": [
    {"smiles": "CCCCCCCCCCCCCCCCCC(=O)OCOC(=O)N(CC)C1C2CCC(C2)C1c1ccccc1", "note": "(single isomer, unassigned) [PRX-P4-003, N-(Octadecanoyloxymethoxycarbonyl)-(−)-N-ethyl-3-phenylbicyclo[2.2.1]heptan-2-amine]", "values": [
      {"measurement": "Prodrug form present in the plasma", "setting": "PRX-P4-003 administered orally (FIG. 4)", "value": "almost none"},
      {"measurement": "Plasma concentration of PRX-P4-003", "setting": "PRX-P4-003 oral 5 mg/kg b.w., 0.00 h", "value": 0.00},
      {"measurement": "Plasma concentration of PRX-P4-003", "setting": "PRX-P4-003 oral 5 mg/kg b.w., 0.08 h", "value": 0.00},
      {"measurement": "Plasma concentration of PRX-P4-003", "setting": "PRX-P4-003 oral 5 mg/kg b.w., 0.25 h", "value": 0.00},
      {"measurement": "Plasma concentration of PRX-P4-003", "setting": "PRX-P4-003 oral 5 mg/kg b.w., 0.50 h", "value": 0.00},
      {"measurement": "Plasma concentration of PRX-P4-003", "setting": "PRX-P4-003 oral 5 mg/kg b.w., 1.00 h", "value": 0.00},
      {"measurement": "Plasma concentration of PRX-P4-003", "setting": "PRX-P4-003 oral 5 mg/kg b.w., 2.00 h", "value": 0.00},
      {"measurement": "Plasma concentration of PRX-P4-003", "setting": "PRX-P4-003 oral 5 mg/kg b.w., 4.00 h", "value": 0.00},
      {"measurement": "Plasma concentration of PRX-P4-003", "setting": "PRX-P4-003 oral 5 mg/kg b.w., 6.00 h", "value": 0.00},
      {"measurement": "Plasma concentration of PRX-P4-003", "setting": "PRX-P4-003 oral 5 mg/kg b.w., 24.00 h", "value": 0.00},
      {"measurement": "AUC% extrap of PRX-P4-003", "setting": "PRX-P4-003 oral 5 mg/kg, 5 mg/kg", "value": "0.0 ± 0.0% and 0.0%"},
      {"measurement": "Plasma concentration of PRX-P4-003", "setting": "PRX-P4-003 oral 10 mg/kg b.w., 0.00 h", "value": 0.00},
      {"measurement": "Plasma concentration of PRX-P4-003", "setting": "PRX-P4-003 oral 10 mg/kg b.w., 0.08 h", "value": 0.00},
      {"measurement": "Plasma concentration of PRX-P4-003", "setting": "PRX-P4-003 oral 10 mg/kg b.w., 0.25 h", "value": 0.00},
      {"measurement": "Plasma concentration of PRX-P4-003", "setting": "PRX-P4-003 oral 10 mg/kg b.w., 0.50 h", "value": 0.00},
      {"measurement": "Plasma concentration of PRX-P4-003", "setting": "PRX-P4-003 oral 10 mg/kg b.w., 1.00 h", "value": 0.00},
      {"measurement": "Plasma concentration of PRX-P4-003", "setting": "PRX-P4-003 oral 10 mg/kg b.w., 2.00 h", "value": 0.00},
      {"measurement": "Plasma concentration of PRX-P4-003", "setting": "PRX-P4-003 oral 10 mg/kg b.w., 4.00 h", "value": 0.00},
      {"measurement": "Plasma concentration of PRX-P4-003", "setting": "PRX-P4-003 oral 10 mg/kg b.w., 6.00 h", "value": 0.00},
      {"measurement": "Plasma concentration of PRX-P4-003", "setting": "PRX-P4-003 oral 10 mg/kg b.w., 24.00 h", "value": 0.00},
      {"measurement": "AUC% extrap of PRX-P4-003", "setting": "PRX-P4-003 oral 10 mg/kg", "value": 0.0, "unit": "%"},
      {"measurement": "Active PRX-002 (−) Isomer formed in plasma", "setting": "PRX-P4-003 oral administration (FIG. 2, FIG. 4)", "value": "desired plasma concentration"},
      {"measurement": "Tmax", "setting": "Sprague Dawley, PRX-P4-003 oral 10 mg/kg, read-out: Tmax of PRX-P4-003", "value": 0, "unit": "h"},
      {"measurement": "Tmax", "setting": "Sprague Dawley, oral 5 mg/kg [equivalent to PRX-002 (−)], analyte: prodrug in plasma, read-out: Oral PK Parameters Tmax, Prodrug", "value": 0, "unit": "h"},
      {"measurement": "Tmax", "setting": "Sprague-Dawley, PRX-P4-003 oral 5 mg/kg, read-out: Tmax of PRX-P4-003", "value": 0, "unit": "h"}
    ]}
  ]
}
